Measurements from US4758555A, “Method for treating convulsions and epilepsy with organic copper compounds” (priority 1986, dated 1988).

Tests used:
Format in all cases: in vivo, male Carworth Farms #1 mice or Sprague-Dawley rats
[1] = Maximal Electroshock Seizure Test; details: for Lowest effective dose, MES (Phase I) / ED50 for inhibition of seizures, MES (Phase II): Table X; for ED50 for inhibition of seizures, MES (Phase II): at time of peak activity
[2] = Subcutaneous Pentylenetetrazol (Metrazol) Seizure Threshold Test; details: for Lowest effective dose, Metrazol (Phase I) / ED50 for inhibition of seizures, Metrazol (Phase II): Table X; for ED50 for inhibition of seizures, Metrazol (Phase II): at time of peak activity
[3] = Anticonvulsant activity, both or unspecified seizure models; details: for Time of peak activity (Phase II): Table X, IP, challenge time; for Anticonvulsant activity (in words): running text

CCC1(CCC(C)C)C(=O)NC(=O)NC1=O [Amobarbital, reference compound]
minimal effective dose ([1]; Mus musculus, 0.5 h, read-out: Lowest effective dose, MES (Phase I)): 30 mg/kg | ED50 ([1]; Mus musculus, ip, read-out: ED50 for inhibition of seizures, MES (Phase II)): 45 mg/kg | Lowest effective dose, MES (Phase I) ([1]; IP, challenge time 4 hrs): I | minimal effective dose ([2]; Mus musculus, 0.5 h, read-out: Lowest effective dose, Metrazol (Phase I)): 100 mg/kg | ED50 ([2]; Mus musculus, ip, read-out: ED50 for inhibition of seizures, Metrazol (Phase II)): 53 mg/kg | Lowest effective dose, Metrazol (Phase I) ([2]; IP, challenge time 4 hrs): I | Time of peak activity (Phase II) [3]: 15 min

CC(=O)Oc1c(Br)cc(Br)cc1C(=O)[O-].CC(=O)Oc1c(Br)cc(Br)cc1C(=O)[O-].[Cu+2] [Cu(II)2 (3,5-dibromoacetylsalicylate)4]
Anticonvulsant activity, Metrazol (Phase I) ([2]; Table I, SC): I | Anticonvulsant activity (in words) [3]: effective in protecting against both models of seizure

CC(=O)Oc1c(I)cc(I)cc1C(=O)[O-].CC(=O)Oc1c(I)cc(I)cc1C(=O)[O-].O.O.O.[Cu+2] [Cu(II)2 (3,5-diiodoacetylsalicylate)4 (H2 O)6]
Anticonvulsant activity, Maximal Electroshock (Phase I) ([1]; Table I, IP): I | Anticonvulsant activity (in words) [3]: effective in protecting against both models of seizure

CC(C)(C)c1ccc(C(=O)[O-])c(O)c1.CC(C)(C)c1ccc(C(=O)[O-])c(O)c1.CC(C)(C)c1ccc(C(=O)[O-])c(O)c1.CC(C)(C)c1ccc(C(=O)[O-])c(O)c1.O.[Cu+2].[Cu+2] [Cu(II)2 (4-tertiarybutylsalicylate)2.1/2H2 O]
Anticonvulsant activity, Maximal Electroshock (Phase I) ([1]; Table II, SC): I | Anticonvulsant activity (in words) [3]: effective at the higher doses studied and for prolonged periods of up to 4 hours

CC(=O)Oc1ccccc1C(=O)[O-].CC(=O)Oc1ccccc1C(=O)[O-].CC(=O)Oc1ccccc1C(=O)[O-].CC(=O)Oc1ccccc1C(=O)[O-].[Cu+2].[Cu+2] [Cu(II)2 (acetylsalicylate)4]
Anticonvulsant activity, Maximal Electroshock (Phase I) ([1]; Table I, SC): I | Anticonvulsant activity (in words) [3]: activity at 30 minutes, 6 hours and 8 hours following subcutaneous injection of the entire range of doses studied

O=C([O-])c1ccccc1OC(=O)C12CC3CC(CC(C3)C1)C2.O=C([O-])c1ccccc1OC(=O)C12CC3CC(CC(C3)C1)C2.O=C([O-])c1ccccc1OC(=O)C12CC3CC(CC(C3)C1)C2.O=C([O-])c1ccccc1OC(=O)C12CC3CC(CC(C3)C1)C2.[Cu+2].[Cu+2] [Cu(II)2 (adamantylsalicylate)4]
Anticonvulsant activity, Maximal Electroshock (Phase I) ([1]; Table I, SC): I | Anticonvulsant activity (in words) [3]: anticonvulsant activity at 30 minutes following subcutaneous injection at 30 and 300 mg/kg

O.O.O.O=C([O-])c1cc(Br)cc(Br)c1O.O=C([O-])c1cc(Br)cc(Br)c1O.[Cu+2] [Cu(II)(3,5-dibromosalicylate)2 (H2 O)3]
Anticonvulsant activity (in words) [3]: effective in preventing both the Maximal Electroshock and Metrazol-inducedseizures in Phase I studies

O.O.O=C([O-])c1cc(Cl)cc(Cl)c1O.O=C([O-])c1cc(Cl)cc(Cl)c1O.[Cu+2] [Cu(II)(3,5-dichlorosalicylate)2 (H2 O)2]
Anticonvulsant activity, Maximal Electroshock (Phase I) ([1]; Table II, SC): I | Anticonvulsant activity (in words) [3]: effective in preventing both the Maximal Electroshock and Metrazol-inducedseizures in Phase I studies

CC(C)c1cc(C(=O)[O-])c(O)c(C(C)C)c1.CC(C)c1cc(C(=O)[O-])c(O)c(C(C)C)c1.[Cu+2] [Cu(II)(3,5-diisopropylsalicylate)2]
Anticonvulsant activity (in words) [3]: effective in preventing both the Maximal Electroshock and Metrazol-inducedseizures in Phase I studies

CC(C)(C)c1cc(C(=O)[O-])c(O)c(C(C)(C)C)c1.CC(C)(C)c1cc(C(=O)[O-])c(O)c(C(C)(C)C)c1.[Cu+2] [Cu(II)(3,5-ditertiarybutylsalicylate)2]
Anticonvulsant activity (in words) [3]: effective at the higher doses studied and for prolonged periods of up to 4 hours | Anticonvulsant activity (in words) ([3]; listed as 3,5-ditertiarybutylsalicylate): effective in preventing both the Maximal Electroshock and Metrazol-inducedseizures in Phase I studies

CCC1(CCC(C)C)C(=O)[N-]C(=O)NC1=O.CCC1(CCC(C)C)C(=O)[N-]C(=O)NC1=O.CCC1(CCC(C)C)C(=O)[N-]C(=O)NC1=O.CCC1(CCC(C)C)C(=O)[N-]C(=O)NC1=O.O.O.O.O.O.[Cu+2].[Cu+2] [Cu(II)(Amobarbital)2 (H2 O)2.5]
ED50 for inhibition of seizures, MES (Phase II) ([1]; IP): 87 mg/kg | Lowest effective dose, MES (Phase I) ([1]; IP, challenge time 30 min): 300 milligrams per kilogram of bod | Lowest effective dose, MES (Phase I) ([1]; IP, challenge time 4 hrs): I | ED50 for inhibition of seizures, Metrazol (Phase II) ([2]; IP): 87 mg/kg | Lowest effective dose, Metrazol (Phase I) ([2]; IP, challenge time 30 min): 30 milligrams per kilogram of bod | Lowest effective dose, Metrazol (Phase I) ([2]; IP, challenge time 4 hrs): I | Time of peak activity (Phase II) [3]: 30 min

O=C1CN=C(c2ccccc2Cl)c2cc([N+](=O)[O-])ccc2N1.O=C1CN=C(c2ccccc2Cl)c2cc([N+](=O)[O-])ccc2N1.[Cl-].[Cl-].[Cu+2] [Cu(II)(Clonazepam)2 (Cl)2]
ED50 for inhibition of seizures, MES (Phase II) ([1]; IP): 25 mg/kg | Lowest effective dose, MES (Phase I) ([1]; IP, challenge time 30 min): 10 milligrams per kilogram of bod | Lowest effective dose, MES (Phase I) ([1]; IP, challenge time 4 hrs): I | Lowest effective dose, MES (Phase I) ([1]; SC, challenge time 30 min): 1 milligrams per kilogram of bod | Lowest effective dose, MES (Phase I) ([1]; SC, challenge time 4 hrs): 30 milligrams per kilogram of bod | ED50 for inhibition of seizures, Metrazol (Phase II) ([2]; IP): 0.05 mg/kg | Lowest effective dose, Metrazol (Phase I) ([2]; IP, challenge time 30 min): 1 milligrams per kilogram of bod | Lowest effective dose, Metrazol (Phase I) ([2]; IP, challenge time 4 hrs): 1 milligrams per kilogram of bod | Lowest effective dose, Metrazol (Phase I) ([2]; SC, challenge time 30 min): 1 milligrams per kilogram of bod | Lowest effective dose, Metrazol (Phase I) ([2]; SC, challenge time 4 hrs): 1 milligrams per kilogram of bod | Time of peak activity (Phase II) [3]: 30 min | Potency or effectiveness relative to a comparator (in words) ([3]; in vivo): four times as effective as the parent drug | Anticonvulsant activity (in words) [3]: very potent anticonvulsant

CN1C(=O)CN=C(c2ccccc2)c2cc(Cl)ccc21.CN1C(=O)CN=C(c2ccccc2)c2cc(Cl)ccc21.[Cl-].[Cl-].[Cu+2] [Cu(II)(Diazepam)2 (Cl)2]
Lowest effective dose, MES (Phase I) ([1]; IP, challenge time 30 min): 30 milligrams per kilogram of bod | Lowest effective dose, MES (Phase I) ([1]; IP, challenge time 4 hrs): 30 milligrams per kilogram of bod | Lowest effective dose, Metrazol (Phase I) ([2]; IP, challenge time 30 min): 30 milligrams per kilogram of bod | Lowest effective dose, Metrazol (Phase I) ([2]; IP, challenge time 4 hrs): 30 milligrams per kilogram of bod | Onset and duration of anticonvulsant action (in words) [3]: rapid onset of action and prolonged duration following intraperitoneal administration

CC(C)C[C@H](N)C(=O)[O-].CC(C)C[C@H](N)C(=O)[O-].[Cu+2] [Cu(II)(L-leucinate)2]
Anticonvulsant activity (in words) [3]: found to have anticonvulsant activity

N[C@@H](CO)C(=O)[O-].N[C@@H](CO)C(=O)[O-].[Cu+2] [Cu(II)(L-serinate)2]
Anticonvulsant activity (in words) [3]: found to have anticonvulsant activity

N[C@@H](Cc1c[nH]c2ccccc12)C(=O)[O-].N[C@@H](Cc1c[nH]c2ccccc12)C(=O)[O-].[Cu+2] [Cu(II)(L-tryptophanate)2]
Anticonvulsant activity (in words) [3]: found to have anticonvulsant activity

O=C([O-])c1ccccc1O.O=C([O-])c1ccccc1O.[Cu+2].c1ccncc1.c1ccncc1 [Cu(II)(salicylate)2 (pyridine)2]
Anticonvulsant activity, Maximal Electroshock (Phase I) ([1]; Table II, IP): I | Onset and duration of anticonvulsant action (in words) [3]: activity representative of a compound with rapid onset

Cu(II)2 (benzoate)4
Anticonvulsant activity (in words) [3]: effective in protecting against both Maximal Electroshock and Metrazol-induced seizures

Cu(II)(L-glutamate)2
Anticonvulsant activity (in words) [3]: found to have anticonvulsant activity
